Experimental findings from patent publication US10793563B2, “GCN2 inhibitors and uses thereof” (Merck Patent GmbH, priority 2018, dated 2020) are described below.

One assay deals with GCN2 kinase (Homo sapiens (Human), UniProt Q9P2K8). Nature of the assay: GCN2 Enzyme Inhibition Assay (Transcreener ADP2 fluorescence polarization). It counts as biochemical. The note with it: 280 μM ATP, 200 μM (RS)7 peptide, 4 nM GCN2, 25° C.; for Ki: Ki(app). The method, boiled down: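 At 25 °C, GCN2 kinase (typical final concentration 4 nM) and (RS)7 peptide in Tris-HCl pH 7.5 buffer with MgCl2, NaCl and DTT were preincubated with compound for 10 min, then ATP was added for a 1 h reaction. ADP was read by FP with antibody/Alexa633 tracer. Non-linear tight-binding analysis gave IC50 and apparent Ki.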
For orientation: Fluorescence polarisation rises when a labelled molecule tumbles more slowly, as on binding a larger partner.

For assay [1], the target named is intracellular GCN2 (phosphorylation of the GCN2 substrate eIF2α) (Homo sapiens (Human), UniProt Q9P2K8). Nature of the assay: GCN2 Cellular Inhibition Assay (AlphaScreen SureFire P-eIF2α Ser51, borrelidin-treated U2OS cells). It counts as cell-based. The settings on record: 10 μM borrelidin, 1 h, phosphorylated eIF2α Ser51, read-out: GCN2 Biomarker (IC50). As for the experimental part:
Compounds can be screened for their ability to inhibit intracellular GCN2 using an AlphaScreen assay (Perkin Elmer) to detect phosphorylation of the GCN2 substrate eIF2α in borrelidin-treated cells. U2OS cells are plated at 5,000 cells per well in 384-well white polystyrene plates (Corning 3570) in McCoy's 5A media (GIBCO 26600-023) supplemented with 10% foetal bovine serum (SAFC 12103C), Penicillin/Streptomycin solution diluted 1:100 (Sigma P0781), and 2 mM L-glutamine (Sigma G7513), and allowed to adhere overnight at 37° C. in 5% CO2. Compounds are then added to the cell media from a final concentration of 40 μM in 4-fold serial dilutions. Borrelidin (FluoroChem M01440) is immediately added to the wells to a final concentration of 10 μM and the cells are incubated for 1 h at 37° C. in 5% CO2. After 1 h of treatment with borrelidin, the media is removed, and the cells are lysed with lysis buffer (TGR BioSceinces TGRLB) at ambient temperature.
An AlphaScreen SureFire P-eIF2α (Ser51) assay kit (Perkin Elmer TGREIF2S) was used to measure levels of eIF2α phosphorylated on Serine 51. Anti-phosphorylated eIF2α Ser51 antibody-linked acceptor beads (TGR BioScience 6760617) are added to the cell homogenate (diluted 1:250 into a mixture of activation (TGR BioScience TGRAB) and reaction buffer (TGR BioScience TGREIF2S) prepared immediately before use). The plate is then incubated for 2 h at ambient temperature in the dark. Anti-eIF2α antibody-linked donor beads (TGR BioScience 6760617) were then added (diluted 1:100 in dilution buffer (TGR BioScience TGRDB) prepared immediately before use). The plate is then incubated overnight at ambient temperature in the dark.
Plates are analyzed on an Alpha Technology-compatible PHERAstar FS plate reader (BMG Labtech Version 1.14) to quantify phosphorylated eIF2α Ser51 levels. The percentage inhibition of phosphorylated eIF2α is calculated by comparison to control wells stimulated with borrelidin alone.
For orientation: Bead proximity is the source of the signal in Alpha formats.

Molecules are shown by their SMILES. Some results are limits rather than exact numbers.

Sequence of GCN2 kinase (Q9P2K8 whole entry): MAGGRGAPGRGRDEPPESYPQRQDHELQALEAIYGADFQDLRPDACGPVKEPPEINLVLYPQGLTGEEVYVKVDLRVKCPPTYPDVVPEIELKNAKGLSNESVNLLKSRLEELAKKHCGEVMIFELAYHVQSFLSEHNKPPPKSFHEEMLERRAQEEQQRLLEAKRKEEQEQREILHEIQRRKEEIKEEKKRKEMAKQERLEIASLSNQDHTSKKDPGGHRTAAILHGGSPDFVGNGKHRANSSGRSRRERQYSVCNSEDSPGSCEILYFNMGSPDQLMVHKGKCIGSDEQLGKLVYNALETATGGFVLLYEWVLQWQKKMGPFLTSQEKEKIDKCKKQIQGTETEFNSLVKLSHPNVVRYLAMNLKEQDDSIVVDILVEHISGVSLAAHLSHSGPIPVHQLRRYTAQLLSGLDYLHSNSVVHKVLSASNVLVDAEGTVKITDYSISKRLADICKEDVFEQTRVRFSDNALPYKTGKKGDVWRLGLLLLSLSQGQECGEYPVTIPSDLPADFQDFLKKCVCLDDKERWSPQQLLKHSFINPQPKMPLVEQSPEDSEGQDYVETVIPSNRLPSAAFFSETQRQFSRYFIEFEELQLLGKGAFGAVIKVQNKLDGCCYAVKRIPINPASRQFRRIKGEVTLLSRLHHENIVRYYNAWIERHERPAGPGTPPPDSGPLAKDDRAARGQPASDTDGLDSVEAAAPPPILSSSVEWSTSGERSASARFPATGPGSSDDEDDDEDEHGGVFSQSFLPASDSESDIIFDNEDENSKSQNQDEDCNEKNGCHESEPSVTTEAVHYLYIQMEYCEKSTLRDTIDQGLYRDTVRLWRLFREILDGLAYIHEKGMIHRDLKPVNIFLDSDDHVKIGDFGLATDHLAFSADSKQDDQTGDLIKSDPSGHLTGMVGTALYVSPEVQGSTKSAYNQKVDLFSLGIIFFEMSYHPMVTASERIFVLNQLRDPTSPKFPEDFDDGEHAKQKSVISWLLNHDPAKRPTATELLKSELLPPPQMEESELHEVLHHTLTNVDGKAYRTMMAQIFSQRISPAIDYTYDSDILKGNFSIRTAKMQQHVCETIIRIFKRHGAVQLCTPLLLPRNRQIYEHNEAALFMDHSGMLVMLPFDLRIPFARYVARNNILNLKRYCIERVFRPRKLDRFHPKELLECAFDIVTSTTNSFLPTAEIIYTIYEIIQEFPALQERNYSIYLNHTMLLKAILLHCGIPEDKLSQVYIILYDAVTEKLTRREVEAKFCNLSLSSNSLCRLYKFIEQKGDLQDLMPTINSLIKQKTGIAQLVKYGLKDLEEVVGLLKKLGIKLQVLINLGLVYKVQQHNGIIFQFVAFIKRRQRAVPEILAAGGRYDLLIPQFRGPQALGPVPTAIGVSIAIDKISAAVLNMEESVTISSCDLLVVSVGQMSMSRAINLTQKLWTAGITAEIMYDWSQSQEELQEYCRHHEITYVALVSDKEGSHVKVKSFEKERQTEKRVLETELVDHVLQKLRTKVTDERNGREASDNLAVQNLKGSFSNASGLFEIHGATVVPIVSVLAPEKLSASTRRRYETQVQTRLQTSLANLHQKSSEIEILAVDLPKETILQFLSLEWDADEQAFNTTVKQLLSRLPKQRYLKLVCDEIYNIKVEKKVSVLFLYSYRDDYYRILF
Sequence of intracellular GCN2 (phosphorylation of the GCN2 substrate eIF2α) (Q9P2K8 whole entry): as above

For orientation: IC50 means the point on the concentration scale where inhibition reaches its midpoint. `Cc1cnc(N2C[C@@H](c3cn[nH]c3C)O[C@@H](C)C2)nc1-c1cnc2ccc(Cl)cn12` [I-203, (2S,6R)-4-(4-(6-chloroimidazo[1,2-a]pyridin-3-yl)-5-methylpyrimidin-2-yl)-2-methyl-6-(5-methyl-1H-pyrazol-4-yl)morpholine]: the IC50 was in the range of 10 to 100 nM on GCN2 kinase and 500 to 5000 nM in assay [1].
Consider `CC1CC(N=S(C)(C)=O)CN(c2ccnc(-c3cnc4ccc(C(F)(F)F)cn34)n2)C1` (stereo not drawn) [I-31, Dimethyl((5-methyl-1-(2-(6-(trifluoromethyl)imidazo[1,2-a]pyridin-3-yl)pyrimidin-4-yl)piperidin-3-yl)imino)-λ^6-sulfanone], for which the Ki at GCN2 kinase was in the range of 10 to 100 nM. Further, the half-maximal inhibitory concentration (IC50) in assay [1] fell in the range of 500 to 5000 nM.
For the compound `Cn1cc(CN2CCN(c3ccnc(-c4cnc5ccc(C(F)(F)F)cn45)n3)CC2c2cn[nH]c2)cn1` (stereo not drawn) [I-384, 3-(4-(4-((1-methyl-1H-pyrazol-4-yl)methyl)-3-(1H-pyrazol-4-yl)piperazin-1-yl)pyrimidin-2-yl)-6-(trifluoromethyl)imidazo[1,2-a]pyridine], the IC50 is less than 10 nM against GCN2 kinase and less than 500 nM in assay [1].
Take `NC(=O)[C@H]1CCCN(c2ncc(F)c(-c3cnc4ccc(C(F)(F)F)cn34)n2)C1` [I-219, (S)-1-(5-fluoro-4-(6-(trifluoromethyl)imidazo[1,2-a]pyridin-3-yl)pyrimidin-2-yl)piperidine-3-carboxamide]: the IC50 against GCN2 kinase was in the range of 10 to 100 nM; in assay [1] it was 500 to 5000 nM.
On the same counts, the results for `Cc1[nH]ncc1[C@H]1C[C@H](N=S(C)(C)=O)CN(c2ccnc(-c3cnc4ccc(C(F)(F)F)cn34)n2)C1` [I-344, dimethyl(((3 S,5R)-5-(5-methyl-1H-pyrazol-4-yl)-1-(2-(6-(trifluoromethyl)imidazo[1,2-a]pyridin-3-yl)pyrimidin-4-yl)piperidin-3-yl)imino)-λ6-sulfanone] are 100 to 1000 nM and 500 to 5000 nM.
On the same counts, the results for `O=C(O)C1(C2CCCN(c3ccnc(-c4cnc5ccc(Cl)cn45)n3)C2)CC1` (stereo not drawn) [I-297, 1-(1-(2-(6-chloroimidazo[1,2-a]pyridin-3-yl)pyrimidin-4-yl)piperidin-3-yl)cyclopropane-1-carboxylic acid] are 10 to 100 nM and 500 to 5000 nM.
The like results for `OCC(O)CN1CCN(c2ccnc(-c3cnc4ccc(C(F)(F)F)cn34)n2)CC1c1cn[nH]c1` (stereo not drawn) [I-352, 3-(2-(1H-pyrazol-4-yl)-4-(2-(6-(trifluoromethyl)imidazo[1,2-a]pyridin-3-yl)pyrimidin-4-yl)piperazin-1-yl)propane-1,2-diol] were, in that order, less than 10 nM and 500 to 5000 nM.
For `FC(F)(F)c1ccc2ncc(-c3nccc(N4CCN(Cc5cnon5)C(c5cn[nH]c5)C4)n3)n2c1` (stereo not drawn) [I-461, 4-{4-[(1,2,5-oxadiazol-3-yl)methyl]-3-(1H-pyrazol-4-yl)piperazin-1-yl}-2-[6-(trifluoromethyl)imidazo[1,2-a]pyridin-3-yl]pyrimidine], the IC50 is less than 10 nM against GCN2 kinase and less than 500 nM in assay [1].
On GCN2 kinase, `C[C@H]1CN(c2nccc(-c3cnc4ccc(C(F)F)cn34)n2)C[C@@H](CNS(C)(=O)=O)C1(F)F` (stereo in doubt) [I-41, N-[[-1-[4-[6-(Difluoromethyl)imidazo[1,2-a]pyridin-3-yl]pyrimidin-2-yl]-4,4-difluoro-5-methyl-3-piperidyl]methyl]methanesulfonamide] returned a Ki of less than 10 nM. In assay [1], the 50% inhibitory concentration (IC50) fell in the range of 500 to 5000 nM.
On to `FC(F)(F)c1ccc2ncc(-c3nccc(N4CCN[C@@H](c5cn[nH]c5)C4)n3)n2c1` [I-533, (S)-3-(4-(3-(1H-pyrazol-4-yl)piperazin-1-yl)pyrimidin-2-yl)-6-(trifluoromethyl)imidazo[1,2-a]pyridine], for which the half-maximal inhibitory concentration (IC50) was less than 10 nM at GCN2 kinase and less than 500 nM in assay [1].
As to `COCCn1cc([C@H]2C[C@H](C)CN(c3nccc(-c4cnc5ccc(C(F)(F)F)cn45)n3)C2)cn1` [I-144, 3-(2-((3R,5S)-3-(1-(2-methoxyethyl)-1H-pyrazol-4-yl)-5-methylpiperidin-1-yl)pyrimidin-4-yl)-6-(trifluoromethyl)imidazo[1,2-a]pyridine], the IC50 against GCN2 kinase was 100 to 1000 nM; in assay [1] it was less than 500 nM.
On the same counts, the results for `FC1(F)CCCN(c2ccnc(-c3cnc4ccc(C(F)(F)F)cn34)n2)C1` [I-224, 3-(4-(3,3-difluoropiperidin-1-yl)pyrimidin-2-yl)-6-(trifluoromethyl)imidazo[1,2-a]pyridine] are 100 to 1000 nM and less than 500 nM.
For the compound `NC(=O)C1CN(c2ccnc(-c3cnc4ccc(Cl)cn34)n2)CCN1C1CC1` (stereo not drawn) [I-286, 4-(2-(6-chloroimidazo[1,2-a]pyridin-3-yl)pyrimidin-4-yl)-1-cyclopropylpiperazine-2-carboxamide], the concentration for half-maximal inhibition (IC50) is less than 10 nM at GCN2 kinase and 500 to 5000 nM in assay [1].
On the same counts, the results for `C[C@@H]1C[C@H](N=S(C)(C)=O)CN(c2ccnc(-c3cnc4cc(Cl)c(Cl)cn34)n2)C1` [I-269, (((3 S,5R)-1-(2-(6,7-dichloroimidazo[1,2-a]pyridin-3-yl)pyrimidin-4-yl)-5-methylpiperidin-3-yl)imino)dimethyl-λ6-sulfanone] are 10 to 100 nM and 500 to 5000 nM.
The like results for `CC(C)(C)OC(=O)N1CC2(C1)OCCN(c1ccnc(-c3cnc4ccc(C(F)(F)F)cn34)n1)C2(C)C` [I-388, tert-butyl 9,9-dimethyl-8-(2-(6-(trifluoromethyl)imidazo[1,2-a]pyridin-3-yl)pyrimidin-4-yl)-5-oxa-2,8-diazaspiro[3.5]nonane-2-carboxylate] were, in that order, 100 to 1000 nM and more than 5000 nM.
`CC(=O)N1C(C)CN(c2ccnc(-c3cnc4ccc(Cl)cn34)n2)CC1c1cn[nH]c1` (stereo not drawn) [I-277, 1-(4-(2-(6-chloroimidazo[1,2-a]pyridin-3-yl)pyrimidin-4-yl)-2-methyl-6-(1H-pyrazol-4-yl)piperazin-1-yl)ethan-1-one]: the results for the half-maximal inhibitory concentration (IC50) (at GCN2 kinase; in assay [1]) were 10 to 100 nM and 500 to 5000 nM, respectively.
Regarding `Cc1noc([C@H]2CN(c3ccnc(-c4cnc5ccc(Cl)cn45)n3)C[C@@H](C)O2)n1` [I-63], on GCN2 kinase, the Ki is less than 10 nM. Besides, in assay [1], the IC50 is less than 500 nM.
With `Fc1cc2ncc(-c3nccc(N4CCCC(c5cn[nH]c5)C4)n3)n2cc1Br` (stereo not drawn) [I-326, 3-(4-(3-(1H-pyrazol-4-yl)piperidin-1-yl)pyrimidin-2-yl)-6-bromo-7-fluoroimidazo[1,2-a]pyridine], the results for the half-inhibitory concentration (IC50) (at GCN2 kinase; in assay [1]) were less than 10 nM and less than 500 nM, respectively.
As to `CC1(C)CN(c2ccnc(-c3cnc4ccc(C(F)(F)F)cn34)n2)CCN1S(C)(=O)=O` [I-339, 3-(4-(3,3-dimethyl-4-(methylsulfonyl)piperazin-1-yl)pyrimidin-2-yl)-6-(trifluoromethyl)imidazo[1,2-a]pyridine], the IC50 at GCN2 kinase was 10 to 100 nM; in assay [1], 500 to 5000 nM.
Take `CC1CN(c2ccnc(-c3cnc4ccc(C(F)(F)F)cn34)n2)CC(C)N1C1CC1` (stereo not drawn) [I-392, 3-(4-(4-cyclopropyl-3,5-dimethylpiperazin-1-yl)pyrimidin-2-yl)-6-(trifluoromethyl)imidazo[1,2-a]pyridine]: the IC50 is 100 to 1000 nM on GCN2 kinase and 500 to 5000 nM in assay [1].
In the case of `CN(CC1CCCN(c2ccnc(-c3cnc4ccc(Cl)cn34)n2)C1)S(C)(=O)=O` (stereo not drawn) [I-283, N-((1-(2-(6-chloroimidazo[1,2-a]pyridin-3-yl)pyrimidin-4-yl)piperidin-3-yl)methyl)-N-methylmethanesulfonamide], the 50% inhibitory concentration (IC50) lay in the range of 10 to 100 nM at GCN2 kinase and 500 to 5000 nM in assay [1].
